Results: US20260262639A1, “PHENYLCYCLOHEXANONE COMPOUND AND USE THEREFOR” (SUMITOMO CHEMICAL COMPANY, LIMITED, priority 2023, published 2026)

Tested on: Pythium ultimum
Experiment: Control test against seedling blight fungus (Pythium ultimum)
Assay type: cell-based
Settings: 1 μL of 500 ppm DMSO solution + 150 μL PDB medium with spores, 96 well plate, 23° C., 5 days, absorbance at 550 nm
Protocol: The untreated well represents a test well in which the procedures were carried out under the same conditions as those described in the Test Example except that dimethyl sulfoxide was dispensed in place of a diluted dimethyl sulfoxide solution containing the Present compound. The Present compound was diluted with dimethyl sulfoxide to obtain a diluted solution containing 500 ppm of the compound, 1 μL of the diluted solution was dispensed into a titer plate (96 well), and thereto was then dispensed 150 μL of a potato dextrose broth medium (PDB medium) to which spores of Pythium ultimum were inoculated in advance. This plate was cultured at 23° C. for 5 days, thereby allowing Pythium ultimum to undergo proliferation, and the absorbance at 550 nm of each well of the titer plate was then measured to obtain a value as a degree of growth of Pythium ultimum. As a result, the degree of growth in the well treated with the Present compound was 50% or less relative to the degree of growth in the untreated well.

CC1CC(S(C)(=O)=O)C(O)(c2ccccc2)CC1=O (stereo not shown) [Present compound]
degree of growth relative to the degree of growth in the untreated well: ≤ 50%
